# Measured values from ChEMBL document CHEMBL4385653, “Design, synthesis, biological evaluation of benzoyl amide derivatives containing nitrogen heterocyclic ring as potential VEGFR-2 inhibitors” (Bioorg Med Chem, 2019).
# Assays:
# MCF7 [1] = test: Inhibition of cell migration of human MCF7 cells at 4 uM by wound healing assay; format: functional, cell-based; conditions: TDE = time-dependent effect
# MCF7 [2] = test: Inhibition of cell migration of human MCF7 cells assessed as relative distance between the edges of the wound at 4 uM incubated for 12 hrs by wound healing assay (reference value: 87.55%); format: functional; design: scale not given: the % may be the effect or the level left
# MCF7 [3] = test: Induction of apoptosis in human MCF7 cells incubated for 24 hrs by Annexin V-FITC/PI double staining based flow cytometry analysis; format: functional, cell-based
# MCF7 [4] = test: Induction of apoptosis in human MCF7 cells at 4 uM by Annexin V-FITC/PI double staining based flow cytometry analysis; format: functional, cell-based; conditions: TDE = time-dependent effect
# MCF7 [5] = test: Suppression of mitochondrial membrane potential in human MCF7 cells assessed as decrease in red fluorescent cells incubated for 12 hrs by rhodamine-123 dye based flow cytometry analysis; format: functional, cell-based
# MCF7 [6] = test: Suppression of mitochondrial membrane potential in human MCF7 cells assessed as increase in green fluorescent cells incubated for 12 hrs by rhodamine-123 dye based flow cytometry analysis; format: functional, cell-based
# MCF7 [7] = test: Inhibition of cell migration of human MCF7 cells assessed as relative distance between the edges of the wound at 4 uM incubated for 24 hrs by wound healing assay (reference value: 87.55%); format: functional; design: scale not given: the % may be the effect or the level left
# [8] = biological target: Fibroblast growth factor receptor 1 (Homo sapiens, UniProt P11362); test: Inhibition of bFGFR (unknown origin) incubated for 30 mins by enzyme immunoassay
# Sequence of Fibroblast growth factor receptor 1 (P11362 whole entry): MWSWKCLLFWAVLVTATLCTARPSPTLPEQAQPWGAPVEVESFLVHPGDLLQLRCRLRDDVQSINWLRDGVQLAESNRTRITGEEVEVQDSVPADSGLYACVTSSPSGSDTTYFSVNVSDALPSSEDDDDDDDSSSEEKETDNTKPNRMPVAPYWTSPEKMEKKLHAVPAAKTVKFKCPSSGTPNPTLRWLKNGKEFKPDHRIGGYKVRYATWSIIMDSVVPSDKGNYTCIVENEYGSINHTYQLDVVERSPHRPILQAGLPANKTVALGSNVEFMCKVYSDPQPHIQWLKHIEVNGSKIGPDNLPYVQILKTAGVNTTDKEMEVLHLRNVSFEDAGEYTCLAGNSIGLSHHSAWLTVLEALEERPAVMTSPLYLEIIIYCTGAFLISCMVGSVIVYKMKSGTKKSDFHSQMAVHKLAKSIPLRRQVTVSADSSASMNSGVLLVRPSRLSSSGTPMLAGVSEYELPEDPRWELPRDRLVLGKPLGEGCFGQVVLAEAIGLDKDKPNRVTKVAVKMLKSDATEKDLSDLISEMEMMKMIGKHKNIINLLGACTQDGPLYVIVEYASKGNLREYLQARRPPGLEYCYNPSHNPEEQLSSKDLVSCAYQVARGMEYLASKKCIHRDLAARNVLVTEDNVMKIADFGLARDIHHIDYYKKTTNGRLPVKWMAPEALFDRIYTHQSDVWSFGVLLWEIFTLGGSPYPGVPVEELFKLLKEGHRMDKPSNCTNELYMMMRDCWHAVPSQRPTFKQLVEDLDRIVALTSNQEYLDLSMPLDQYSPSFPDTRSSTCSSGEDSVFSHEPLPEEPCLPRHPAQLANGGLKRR
# HeLa = test: Antiproliferative activity against human HeLa cells assessed as inhibition of cell proliferation incubated for 48 hrs by MTT assay; format: functional, cell-based
# HepG2 = test: Antiproliferative activity against human HepG2 cells assessed as inhibition of cell proliferation incubated for 48 hrs by MTT assay; format: functional, cell-based; conditions: HepG2, 48 h
# MCF7 [9] = test: Antiproliferative activity against human MCF7 cells assessed as inhibition of cell proliferation incubated for 48 hrs by MTT assay; format: functional, cell-based; conditions: MCF7, 48 h
# A549 = test: Antiproliferative activity against human A549 cells assessed as inhibition of cell proliferation incubated for 48 hrs by MTT assay; format: functional, cell-based; conditions: A549, 48 h
# [10] = Cytotoxicity in HEK293T cells assessed as reduction in cell viability incubated for 48 hrs by MTT assay; format: cell-based, HEK-293T; conditions: human
# MCF7 [11] = test: Induction of apoptosis in human MCF7 cells assessed as early apoptotic cells level at 2 uM incubated for 24 hrs by Annexin V-FITC/PI double staining based flow cytometry analysis (reference value: 6.37%); format: functional
# MCF7 [12] = test: Induction of apoptosis in human MCF7 cells assessed as late apoptotic cells level at 2 uM incubated for 24 hrs by Annexin V-FITC/PI double staining based flow cytometry analysis (reference value: 10.1%); format: functional
# MCF7 [13] = test: Induction of apoptosis in human MCF7 cells assessed as late necrotic cells level at 2 uM incubated for 24 hrs by Annexin V-FITC/PI double staining based flow cytometry analysis (reference value: 1.49%); format: functional
# MCF7 [14] = test: Induction of apoptosis in human MCF7 cells assessed as viable cells level at 4 uM incubated for 24 hrs by Annexin V-FITC/PI double staining based flow cytometry analysis (reference value: 82%); format: functional
# MCF7 [15] = test: Induction of apoptosis in human MCF7 cells assessed as early apoptotic cells level at 4 uM incubated for 24 hrs by Annexin V-FITC/PI double staining based flow cytometry analysis (reference value: 6.37%); format: functional
# MCF7 [16] = test: Induction of apoptosis in human MCF7 cells assessed as viable cells level at 8 uM incubated for 24 hrs by Annexin V-FITC/PI double staining based flow cytometry analysis (reference value: 82%); format: functional
# MCF7 [17] = test: Induction of apoptosis in human MCF7 cells assessed as early apoptotic cells level at 8 uM incubated for 24 hrs by Annexin V-FITC/PI double staining based flow cytometry analysis (reference value: 6.37%); format: functional
# MCF7 [18] = test: Induction of apoptosis in human MCF7 cells assessed as late apoptotic cells level at 8 uM incubated for 24 hrs by Annexin V-FITC/PI double staining based flow cytometry analysis (reference value: 10.1%); format: functional
# MCF7 [19] = test: Induction of apoptosis in human MCF7 cells assessed as late necrotic cells level at 8 uM incubated for 24 hrs by Annexin V-FITC/PI double staining based flow cytometry analysis (reference value: 1.49%); format: functional
# MCF7 [20] = test: Induction of apoptosis in human MCF7 cells assessed as viable cells level at 4 uM incubated for 12 hrs by Annexin V-FITC/PI double staining based flow cytometry analysis (reference value: 89%); format: functional
# MCF7 [21] = test: Induction of apoptosis in human MCF7 cells assessed as early apoptotic cells level at 4 uM incubated for 12 hrs by Annexin V-FITC/PI double staining based flow cytometry analysis (reference value: 1.06%); format: functional
# MCF7 [22] = test: Induction of apoptosis in human MCF7 cells assessed as late apoptotic cells level at 4 uM incubated for 12 hrs by Annexin V-FITC/PI double staining based flow cytometry analysis (reference value: 3.1%); format: functional
# MCF7 [23] = test: Induction of apoptosis in human MCF7 cells assessed as viable cells level at 4 uM incubated for 24 hrs by Annexin V-FITC/PI double staining based flow cytometry analysis (reference value: 89%); format: functional
# MCF7 [24] = test: Induction of apoptosis in human MCF7 cells assessed as early apoptotic cells level at 4 uM incubated for 24 hrs by Annexin V-FITC/PI double staining based flow cytometry analysis (reference value: 1.06%); format: functional
# MCF7 [25] = test: Induction of apoptosis in human MCF7 cells assessed as late apoptotic cells level at 4 uM incubated for 24 hrs by Annexin V-FITC/PI double staining based flow cytometry analysis (reference value: 3.1%); format: functional
# MCF7 [26] = test: Induction of apoptosis in human MCF7 cells assessed as viable cells level at 4 uM incubated for 36 hrs by Annexin V-FITC/PI double staining based flow cytometry analysis (reference value: 89%); format: functional
# MCF7 [27] = test: Induction of apoptosis in human MCF7 cells assessed as early apoptotic cells level at 4 uM incubated for 36 hrs by Annexin V-FITC/PI double staining based flow cytometry analysis (reference value: 1.06%); format: functional
# MCF7 [28] = test: Induction of apoptosis in human MCF7 cells assessed as late apoptotic cells level at 4 uM incubated for 36 hrs by Annexin V-FITC/PI double staining based flow cytometry analysis (reference value: 3.1%); format: functional
# MCF7 [29] = test: Induction of apoptosis in human MCF7 cells assessed as late necrotic cells level at 4 uM incubated for 36 hrs by Annexin V-FITC/PI double staining based flow cytometry analysis (reference value: 6.88%); format: functional
# MCF7 [30] = test: Suppression of mitochondrial membrane potential in human MCF7 cells assessed as red fluorescent cells level at 4 uM incubated for 12 hrs by rhodamine-123 dye based flow cytometry analysis (reference value: 99.71%); format: functional
# MCF7 [31] = test: Suppression of mitochondrial membrane potential in human MCF7 cells assessed as green fluorescent cells level at 4 uM incubated for 12 hrs by rhodamine-123 dye based flow cytometry analysis (reference value: 0.29%); format: functional
# MCF7 [32] = test: Suppression of mitochondrial membrane potential in human MCF7 cells assessed as red fluorescent cells level at 8 uM incubated for 12 hrs by rhodamine-123 dye based flow cytometry analysis (reference value: 99.71%); format: functional
# MCF7 [33] = test: Suppression of mitochondrial membrane potential in human MCF7 cells assessed as green fluorescent cells level at 8 uM incubated for 12 hrs by rhodamine-123 dye based flow cytometry analysis (reference value: 0.29%); format: functional
smiles,measurement,setting,value
Cc1ccc(-n2cc(NC(=O)c3cccc(NS(=O)(=O)c4ccc(Cl)cc4)c3)cn2)cc1,inhibition,MCF7 [1],Tde
same,Activity,MCF7 [2],90.9%
same,Activity,MCF7 [3],Dose-dependent effect
same,Activity,MCF7 [4],Tde
same,Activity,MCF7 [5],Dose-dependent effect
same,Activity,MCF7 [6],Dose-dependent effect
same,Activity,MCF7 [7],77.3%
same,IC50,[8],17.2 µM
same,IC50,HeLa,4.57 µM
same,IC50,HepG2,2.44 µM
same,IC50,MCF7 [9],1.08 µM
same,IC50,A549,15.6 µM
same,CC50 at 48 h,[10],110 µM
same,Activity,MCF7 [11],9.7%
same,Activity,MCF7 [12],17.7%
same,Activity,MCF7 [13],2.32%
same,Activity,MCF7 [14],64%
same,Activity,MCF7 [15],11.9%
same,Activity,MCF7 [16],41.4%
same,Activity,MCF7 [17],9.62%
same,Activity,MCF7 [18],45.2%
same,Activity,MCF7 [19],3.76%
same,Activity,MCF7 [20],65.6%
same,Activity,MCF7 [21],22.7%
same,Activity,MCF7 [22],11.3%
same,Activity,MCF7 [23],58.5%
same,Activity,MCF7 [24],21.6%
same,Activity,MCF7 [25],18.7%
same,Activity,MCF7 [26],47.6%
same,Activity,MCF7 [27],30.4%
same,Activity,MCF7 [28],20.9%
same,Activity,MCF7 [29],1.03%
same,Activity,MCF7 [30],80.6%
same,Activity,MCF7 [31],19.4%
same,Activity,MCF7 [32],62.85%
same,Activity,MCF7 [33],37.15%
